The values that follow come from patent US8889679B2, “Glutaraldehyde based biocidal compositions and methods of use” (Dow Global Technologies LLC, priority 2009, dated 2014).

In experiment [1] the test system is oil field isolated anaerobic SRB consortium. Kind of experiment: Biocidal efficacy against anaerobic bacteria for high temperature and sulfide-rich conditions: lowest concentration for 99.9% bacterial reduction in 2 hours. It is filed as cell-based, anaerobic sulfate-reducing bacteria (SRB). The following applies: 80° C., 10 ppm sulfide ion; for Dosage required for 99.9% bacterial kill in 2 h (active ppm) Glutaraldehyde: glutaraldehyde concentration alone or in combination. The protocol: (§1) The synergy indexes reported in the following examples are calculated using the following equation: Synergy Index=Ca/CA+Cb/CB
(§2) where Ca: Concentration of biocide A required to achieve a certain level or complete bacterial kill when used in combination;
(§3) CA: Concentration of biocide A required to achieve a certain level or complete bacterial kill when used alone;
(§4) Cb: Concentration of biocide B required to achieve a certain level or complete bacterial kill when used in combination; and
(§5) CB: Concentration of biocide B required to achieve a certain level or complete bacterial kill when used alone.
(§6) A synergy index (SI) of 1 indicates additivity, a synergy index of less than 1 indicates synergy, and a synergy index greater than 1 indicates antagonism.
(§7) Various methods known to those skilled in the art can be used for evaluating biocidal efficacy. In the examples below, aliquots of the biocide-treated samples are removed at predetermined time points and the biocide concentration required to achieve a certain level or complete bacterial kill is determined by culture-based methods including serial dilution. In some examples, the method is based or adapted (e.g., for high temperature testing or for the presence of sulfide) from the methodology described in international patent publication WO 2009/039004, which is incorporated herein by reference.
Inside an anaerobic chamber, biocide solutions (single or in combination) are prepared at various concentrations in a salt solution (3.1183 g of NaCl, 1.3082 mg of NaHCO3, 47.70 mg of KCl, 72.00 mg of CaCl2, 54.49 mg of MgSO4, 172.28 mg of Na2SO4, 43.92 mg of Na2CO3 in 1 L water). The biocide solutions are challenged with 10^4 to 10^5 CFU/mL of an oil field isolated anaerobic SRB consortium and 10 ppm sulfide ion. The mixtures are incubated at 80° C. under anaerobic conditions for 2 hours after which the biocidal efficacy against the field SRB consortium is evaluated. The biocidal efficacy is determined by selecting the lowest biocide concentration required to achieve at least a 99.9% bacterial reduction in 2 hours. Synergy index is then calculated.

The test system is the same in experiment [2]. The experiment can be described thus: Biocidal efficacy against anaerobic bacteria: minimum biocide concentration for complete bacteria kill (MBC), 40° C., 24 hour. It is filed as cell-based, anaerobic sulfate-reducing bacteria (SRB). The following applies: for MBC (active ppm) Glutaraldehyde: glutaraldehyde concentration alone or in combination. The protocol: as §1, §2, §3, §4, §5, §6, §7
Inside an anaerobic chamber, a deaerated sterile salt solution (3.1183 g of NaCl, 1.3082 mg of NaHCO3, 47.70 mg of KCl, 72.00 mg of CaCl2, 54.49 mg of MgSO4, 172.28 mg of Na2SO4, 43.92 mg of Na2CO3 in 1 L water) is contaminated with an oil field isolated anaerobic SRB consortium at final bacterial concentrations of 10^5-10^6 CFU/mL. Aliquots of this contaminated water are then treated with biocide solution (single or in combination) at various concentrations.

The mark [3] stands for this setting: glutaraldehyde/CTAC series, CTAC concentration alone or in combination.
Setting [4] is: glutaraldehyde/tris nitro series.
[5] abbreviates: glutaraldehyde/tris nitro series, tris nitro concentration alone or in combination.
[6] abbreviates: glutaraldehyde/HHT series, HHT concentration alone or in combination.

With `ClC=CC[N+]12CN3CN(CN(C3)C1)C2` [CTAC, 1-(3-chloroallyl)-3,5,7-triaza-1-azoniaadamantane], the “Dosage required for 99.9% bacterial kill in 2 h (active ppm) CTAC” value in experiment [1] (setting [3]) amounted to 375.0 active ppm. For the same molecule, the “MBC (active ppm) CTAC” value in experiment [2] (setting [3]) is 133.3 active ppm.
In the case of `O=CCCCC=O` [glutaraldehyde], the entries for the “Dosage required for 99.9% bacterial kill in 2 h (active ppm) Glutaraldehyde” value in experiment [1] (glutaraldehyde/CTAC series), in experiment [1] (glutaraldehyde/HHT series) and in experiment [1] (setting [4]) were 8.7 active ppm, 15.6 active ppm and 22.5 active ppm, respectively. Moreover, the figures for the “MBC (active ppm) Glutaraldehyde” value in experiment [2] (glutaraldehyde/CTAC series), in experiment [2] (glutaraldehyde/HHT series) and in experiment [2] (setting [4]) were 5.3 active ppm, 4.0 active ppm and 4.0 active ppm, respectively.
In the case of `O=[N+]([O-])C(CO)(CO)CO` [tris nitro, tris(hydroxymethyl)nitromethane], the “Dosage required for 99.9% bacterial kill in 2 h (active ppm) Tris Nitro” value in experiment [1] (setting [5]) was determined as 180.0 active ppm. Besides, in experiment [2] (setting [5]), the “MBC (active ppm) Tris Nitro” value is 44.4 active ppm.
Take `OCCN1CN(CCO)CN(CCO)C1` [HHT, hexahydro-1,3,5-tris(2-hydroxyethyl)-s-triazine]: in experiment [1] (setting [6]), the “Dosage required for 99.9% bacterial kill in 2 h (active ppm) HHT” value came out at 125.0 active ppm. Besides, in experiment [2] (setting [6]), the “MBC (active ppm) HHT” value was 133.3 active ppm.
